In patent publication US20240150377A1, “MODULATORS OF CYSTIC FIBROSIS TRANSMEMBRANE CONDUCTANCE REGULATOR” (VERTEX PHARMACEUTICALS INCORPORATED, priority 2020, published 2024):
pEC50: −log10 of the molar value.

Target: T1, CFTR (Homo sapiens, UniProt P13569, DEL508-508)
T1 construct: endogenous in cells; host or cells: primary human bronchial epithelial cells from CF subjects (F508del/MF-HBE), differentiated at air-liquid interface
Assay: HBE assay: Ussing chamber assay of CFTR-mediated short-circuit currents
Type: cell-based
Details: HBE assay; for pEC50: read-out: HBE EC50; for Emax: read-out: HBE Max activity (%); for activation at 10 µM: read-out: HBE Activity at 10 μM (%)
Summary of the method: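 CFTR-mediated Isc (μA/cm²) equals the peak response to apical 20 μM forskolin minus the residual after a 20 μM each BPO/GlyH-101/CFTR inhibitor 172 cocktail, recorded in Ussing chambers at Vhold 0 mV, 37 °C, pH 7.4, with 30 μM apical amiloride. Cells were F508del/MF HBE cultures preincubated 18-24 h with corrector (concentration range or 10 μM) plus 1 μM ivacaftor in 20% human serum.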

T1 sequence (P13569 with tags, fused parts or gaps DEL508-508): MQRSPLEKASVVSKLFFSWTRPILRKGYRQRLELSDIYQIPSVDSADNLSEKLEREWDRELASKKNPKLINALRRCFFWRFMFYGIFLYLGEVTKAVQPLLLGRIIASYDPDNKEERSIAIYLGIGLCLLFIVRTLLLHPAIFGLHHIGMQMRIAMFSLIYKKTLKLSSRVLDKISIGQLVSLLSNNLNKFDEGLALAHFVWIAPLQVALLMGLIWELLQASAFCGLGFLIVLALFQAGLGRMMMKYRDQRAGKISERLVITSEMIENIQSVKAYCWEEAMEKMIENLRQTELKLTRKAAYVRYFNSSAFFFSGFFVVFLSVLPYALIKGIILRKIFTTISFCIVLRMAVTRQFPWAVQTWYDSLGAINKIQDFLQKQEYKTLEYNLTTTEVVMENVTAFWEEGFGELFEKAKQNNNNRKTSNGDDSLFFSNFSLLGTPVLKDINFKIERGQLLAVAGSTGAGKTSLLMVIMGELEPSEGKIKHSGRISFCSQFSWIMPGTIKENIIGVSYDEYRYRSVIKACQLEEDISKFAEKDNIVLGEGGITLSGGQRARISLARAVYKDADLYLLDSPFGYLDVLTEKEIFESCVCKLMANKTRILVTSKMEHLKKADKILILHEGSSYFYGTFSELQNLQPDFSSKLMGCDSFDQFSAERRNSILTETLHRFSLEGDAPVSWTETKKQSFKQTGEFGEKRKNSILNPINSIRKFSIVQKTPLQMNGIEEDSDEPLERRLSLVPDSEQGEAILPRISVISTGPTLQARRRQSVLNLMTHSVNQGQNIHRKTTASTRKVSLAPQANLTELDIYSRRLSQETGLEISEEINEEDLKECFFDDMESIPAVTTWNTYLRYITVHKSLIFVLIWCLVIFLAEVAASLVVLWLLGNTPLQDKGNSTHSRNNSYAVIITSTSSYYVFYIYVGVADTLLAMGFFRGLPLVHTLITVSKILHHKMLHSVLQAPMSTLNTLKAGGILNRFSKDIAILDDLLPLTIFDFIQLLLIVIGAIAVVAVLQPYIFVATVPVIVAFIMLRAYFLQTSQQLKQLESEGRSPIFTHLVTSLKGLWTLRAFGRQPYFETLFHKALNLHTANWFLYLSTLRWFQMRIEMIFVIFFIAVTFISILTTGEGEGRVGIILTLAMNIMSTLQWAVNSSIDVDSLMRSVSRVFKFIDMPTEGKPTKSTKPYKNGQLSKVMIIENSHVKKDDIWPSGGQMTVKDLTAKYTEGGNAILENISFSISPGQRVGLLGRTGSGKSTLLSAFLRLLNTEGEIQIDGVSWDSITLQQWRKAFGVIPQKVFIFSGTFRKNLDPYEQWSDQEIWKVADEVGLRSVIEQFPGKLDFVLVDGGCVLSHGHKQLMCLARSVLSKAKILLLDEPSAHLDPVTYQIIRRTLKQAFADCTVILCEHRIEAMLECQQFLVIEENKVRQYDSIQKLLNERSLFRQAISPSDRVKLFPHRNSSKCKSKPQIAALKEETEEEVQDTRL

Structure (SMILES)	pEC50	Emax	activation at 10 µM
Cc1cccc(C)c1-c1cc2nc(n1)NS(=O)(=O)c1cccc(c1)C(=O)N(Cc1cccc(N(C)C3CCOC3)n1)[C@H](CC(C)(C)C)CO2 (stereo partly shown) [Compound 1347]	> 6.00	> 60%	
Cc1cccc(C)c1-c1cc2nc(n1)NS(=O)(=O)c1cccc(c1)C(=O)N(Cc1cncc(NC3CCCC34CCC4)n1)[C@H](CC(C)(C)C)CO2 (stereo partly shown) [Compound 1348]	> 6.00	> 60%	
Cc1cccc(C)c1-c1cc2nc(n1)NS(=O)(=O)c1cccc(c1)C(=O)N(Cc1cncc(N(C)C3CCOC3)n1)[C@H](CC(C)(C)C)CO2 (stereo partly shown) [Compound 1349]	> 6.00	> 60%	
Cc1cccc(C)c1-c1cc2nc(n1)NS(=O)(=O)c1cccc(c1)C(=O)N(Cc1ncc(OC(C)C)cc1C#N)[C@H](CC(C)(C)C)CO2 [Compound 1351]	> 6.00	> 60%	
Cc1cccc(C)c1-c1cc2nc(n1)NS(=O)(=O)c1cccc(c1)C(=O)N(Cc1cccc(NC3CCOC3)n1)[C@H](CC(C)(C)C)CO2 (stereo partly shown) [Compound 1352]	> 6.00	> 60%	
Cc1cccc(C)c1-c1cc2nc(n1)NS(=O)(=O)c1cccc(c1)C(=O)N(Cc1cncc(NC3CCOC3)n1)[C@H](CC(C)(C)C)CO2 (stereo partly shown) [Compound 1353]	> 6.00	> 60%	
Cc1cccc(C)c1-c1cc2nc(n1)NS(=O)(=O)c1cccc(c1)C(=O)N(Cc1cccc(N(C)CC3(C)CC3)n1)[C@H](CC(C)(C)C)CO2 [Compound 1354]	> 6.00	> 60%	
Cc1cccc(C)c1-c1cc2nc(n1)NS(=O)(=O)c1cccc(c1)C(=O)N(Cc1cccc(N(C)C3CCCC3)n1)[C@H](CC(C)(C)C)CO2 [Compound 1355]	> 6.00	> 60%	
CCN(C)c1ccnc(CN2C(=O)c3cccc(c3)S(=O)(=O)Nc3nc(cc(-c4c(C)cccc4C)n3)OC[C@H]2CC(C)(C)C)n1 [Compound 1357]	> 6.00	> 60%	
Cc1cccc(C)c1-c1cc2nc(n1)NS(=O)(=O)c1cccc(c1)C(=O)N(Cc1coc(N3CCOCC3)n1)[C@H](CC(C)(C)C)CO2 [Compound 1358]	> 6.00	> 60%	
Cc1cccc(C)c1-c1cc2nc(n1)NS(=O)(=O)c1cccc(c1)C(=O)N(Cc1ncc(OCC3(C)COC3)cn1)[C@H](CC(C)(C)C)CO2 [Compound 1360]	> 6.00	> 60%	
Cc1cccc(C)c1-c1cc2nc(n1)NS(=O)(=O)c1cccc(c1)C(=O)N(Cc1ncc3c(n1)CCOC3)[C@H](CC(C)(C)C)CO2 [Compound 1362]			> 60%
COCCOc1cnc(CN2C(=O)c3cccc(c3)S(=O)(=O)Nc3nc(cc(-c4c(C)cccc4C)n3)OC[C@H]2CC(C)(C)C)c(F)c1 [Compound 1364]	> 6.00	> 60%	
Cc1cccc(C)c1-c1cc2nc(n1)NS(=O)(=O)c1cccc(c1)C(=O)N(Cc1ncc(N3CC(C)(C)CC3=O)cn1)[C@H](CC(C)(C)C)CO2 [Compound 1365]	> 6.00	> 60%	
COCCN(CC(C)(C)C)c1cncc(CN2C(=O)c3cccc(c3)S(=O)(=O)Nc3nc(cc(-c4c(C)cccc4C)n3)OC[C@H]2CC(C)(C)C)n1 [Compound 1367]	> 6.00	> 60%	
Cc1cccc(C)c1-c1cc2nc(n1)NS(=O)(=O)c1cccc(c1)C(=O)N(Cc1ncc(OC3CCOCC3)cc1F)[C@H](CC(C)(C)C)CO2 [Compound 1368]	> 6.00	> 60%	
CO[C@H]1C[C@@H](Oc2cnc(CN3C(=O)c4cccc(c4)S(=O)(=O)Nc4nc(cc(-c5c(C)cccc5C)n4)OC[C@H]3CC(C)(C)C)nc2)C1 [Compound 1369]	> 6.00	> 60%	
Cc1cccc(C)c1-c1cc2nc(n1)NS(=O)(=O)c1cccc(c1)C(=O)N(Cc1ncc(OC3CCC3)cc1F)[C@H](CC(C)C)CO2 [Compound 1370]	> 6.00	> 60%	
Cc1cccc(C)c1-c1cc2nc(n1)NS(=O)(=O)c1cccc(c1)C(=O)N(Cc1cccc(N(C)C3CCOCC3)n1)[C@H](CC(C)(C)C)CO2 [Compound 1371]	> 6.00	> 60%	
COCCN(CC(C)C)c1cccc(CN2C(=O)c3cccc(c3)S(=O)(=O)Nc3nc(cc(-c4c(C)cccc4C)n3)OC[C@H]2CC(C)(C)C)n1 [Compound 1372]	> 6.00	> 60%	
Cc1cc(NC(C)C)cnc1CN1C(=O)c2cccc(c2)S(=O)(=O)Nc2nc(cc(-c3c(C)cccc3C)n2)OC[C@H]1CC(C)(C)C [Compound 1373]	> 6.00	> 60%	
CCC(C)Oc1cnc(CN2C(=O)c3cccc(c3)S(=O)(=O)Nc3nc(cc(-c4c(C)cccc4C)n3)OC[C@H]2CC(C)(C)C)nc1 (stereo partly shown) [Compound 1374]	> 6.00		
CC[C@@H](C)Oc1cnc(CN2C(=O)c3cccc(c3)S(=O)(=O)Nc3nc(cc(-c4c(C)cccc4C)n3)OC[C@H]2CC(C)(C)C)nc1 [Compound 1375]	> 6.00	> 60%	

Structure (SMILES)	pEC50	Emax	activation at 10 µM
Cc1cccc(C)c1-c1cc2nc(n1)NS(=O)(=O)c1cccc(c1)C(=O)N(Cc1nc(OCC(C)C)ccc1F)[C@H](CC(C)(C)C)CO2 [Compound 1376]	> 6.00	> 60%	
Cc1cccc(C)c1-c1cc2nc(n1)NS(=O)(=O)c1cccc(c1)C(=O)N(Cc1ncc(O[C@H](C)C(C)C)cn1)[C@H](CC(C)(C)C)CO2 [Compound 1377]	> 6.00	> 60%	
Cc1cccc(C)c1-c1cc2nc(n1)NS(=O)(=O)c1cccc(c1)C(=O)N(Cc1ncc(N3CCC(F)(F)C3)cn1)[C@H](CC(C)(C)C)CO2 [Compound 1379]	> 6.00	> 60%	
COCCOc1cnc(CN2C(=O)c3cccc(c3)S(=O)(=O)Nc3nc(cc(-c4c(C)cccc4C)n3)OC[C@H]2CC(C)(C)C)nc1 [Compound 1380]	> 6.00	> 60%	
COCCN(C)c1cnc(CN2C(=O)c3cccc(c3)S(=O)(=O)Nc3nc(cc(-c4c(C)cccc4C)n3)OC[C@H]2CC(C)(C)C)c(C)c1 [Compound 1381]	> 6.00	> 60%	
COCCOc1cnc(CN2C(=O)c3cccc(c3)S(=O)(=O)Nc3nc(cc(-c4c(C)cccc4C)n3)OC[C@H]2CC(C)(C)C)c(C)c1 [Compound 1382]	> 6.00	> 60%	
Cc1cccc(C)c1-c1cc2nc(n1)NS(=O)(=O)c1cccc(c1)C(=O)N(Cc1cncc(N3CCCC3C(C)C)n1)[C@H](CC(C)(C)C)CO2 (stereo partly shown) [Compound 1383]	> 6.00	> 60%	
Cc1cccc(C)c1-c1cc2nc(n1)NS(=O)(=O)c1cccc(c1)C(=O)N(Cc1cncc(N3CCCC3C(C)C)n1)[C@H](CC(C)(C)C)CO2 (stereo partly shown) [Compound 1384]	> 6.00		
COCCCOc1cnc(CN2C(=O)c3cccc(c3)S(=O)(=O)Nc3nc(cc(-c4c(C)cccc4C)n3)OC[C@H]2CC(C)(C)C)c(F)c1 [Compound 1385]	> 6.00	> 60%	
Cc1cccc(C)c1-c1cc2nc(n1)NS(=O)(=O)c1cccc(c1)C(=O)N(Cc1cncc(N(C)C3CCCC3)n1)[C@H](CC(C)(C)C)CO2 [Compound 1387]	> 6.00	> 60%	
Cc1cccc(C)c1-c1cc2nc(n1)NS(=O)(=O)c1cccc(c1)C(=O)N(Cc1ncc(OCC3CC3)cn1)[C@H](CC(C)(C)C)CO2 [Compound 1390]	> 6.00	> 60%	
CC[C@@H](C)Oc1cnc(CN2C(=O)c3cccc(c3)S(=O)(=O)Nc3nc(cc(-c4c(C)cccc4C)n3)OC[C@H]2CC(C)C)nc1 [Compound 1391]	> 6.00	> 60%	
COCCN(c1cccc(CN2C(=O)c3cccc(c3)S(=O)(=O)Nc3nc(cc(-c4c(C)cccc4C)n3)OC[C@H]2CC(C)(C)C)n1)C1CC2(CC2)C1 [Compound 1393]	> 6.00	> 60%	
COCCN(c1cncc(CN2C(=O)c3cccc(c3)S(=O)(=O)Nc3nc(cc(-c4c(C)cccc4C)n3)OC[C@H]2CC(C)(C)C)n1)C1CC2(CC2)C1 [Compound 1394]	> 6.00	> 60%	
Cc1cccc(C)c1-c1cc2nc(n1)NS(=O)(=O)c1cccc(c1)C(=O)N(Cc1ncc(OCC(C)C)cn1)[C@H](CC(C)(C)C)CO2 [Compound 1396]	> 6.00	> 60%	
Cc1cccc(C)c1-c1cc2nc(n1)NS(=O)(=O)c1cccc(c1)C(=O)N(Cc1ncc(OC3CC(F)(F)C3)cn1)[C@H](CC(C)(C)C)CO2 [Compound 1397]	> 6.00	> 60%	
Cc1cccc(C)c1-c1cc2nc(n1)NS(=O)(=O)c1cccc(c1)C(=O)N(Cc1cccc(N3C4CCC3CC4)n1)[C@H](CC(C)(C)C)CO2 [Compound 1398]	> 6.00	> 60%	
COC[C@H]1COCCN1c1cccc(CN2C(=O)c3cccc(c3)S(=O)(=O)Nc3nc(cc(-c4c(C)cccc4C)n3)OC[C@H]2CC(C)(C)C)n1 [Compound 1399]			> 60%
Cc1cccc(C)c1-c1cc2nc(n1)NS(=O)(=O)c1cccc(c1)C(=O)N(Cc1ncc(N3CC(C)C3)cn1)[C@H](CC(C)(C)C)CO2 [Compound 1403]	> 6.00	> 60%	
Cc1cccc(C)c1-c1cc2nc(n1)NS(=O)(=O)c1cccc(c1)C(=O)N(Cc1ncc(N3CC(OC(C)C)C3)cn1)[C@H](CC(C)(C)C)CO2 [Compound 1404]	> 6.00	> 60%	
Cc1cccc(C)c1-c1cc2nc(n1)NS(=O)(=O)c1cccc(c1)C(=O)N(Cc1ncc(N3CC[C@H]3C)cn1)[C@H](CC(C)(C)C)CO2 [Compound 1405]	> 6.00	> 60%	
COCCN(c1cncc(CN2C(=O)c3cccc(c3)S(=O)(=O)Nc3nc(cc(-c4c(C)cccc4C)n3)OC[C@H]2CC(C)(C)C)n1)C(C)C [Compound 1407]	> 6.00	> 60%	
Cc1cccc(C)c1-c1cc2nc(n1)NS(=O)(=O)c1cccc(c1)C(=O)N(Cc1ncc(OC3CCCC3)cn1)[C@H](CC(C)C)CO2 [Compound 1408]	5.52 to 6.00	> 60%	
